Test systems include A549 NSCLC; CCRF-CEM leukemia; HOP-92 NSCLC; HT29 colon; MDA-MB-435; OVCAR-4 ovarian; SK-OV-3 ovarian; SR leukemia; SW-620 colon; UO-31 renal.
What all share (assay): NCI-60 cell line screen, 48 h

Where “and” joins values, the source holds several entries; their conditions need not be identical. Equal entries are not always repeated.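 Results reflect a 48-hour exposure of cells in 96-well plates to compound at five concentrations. GI50 = concentration required for 50% inhibition of growth. TGI: total growth inhibition.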

Consider `COc1cc(-c2oc3ccccc3c(=O)c2O)cc(OC)c1OC`, for which the TGI in the assay on A549 NSCLC is more than 100 µM; in the assay on CCRF-CEM leukemia, more than 30.5 µM; in the assay on HOP-92 NSCLC, 44 µM; with HT29 colon it was more than 100 µM; in the assay with MDA-MB-435, more than 100 µM; with OVCAR-4 ovarian, more than 100 µM. In addition, the TGI in the assay with SK-OV-3 ovarian was more than 100 µM; with SR leukemia it was more than 24.8 µM; in the assay with SW-620 colon it was more than 100 µM; with UO-31 renal, more than 100 µM.

Consider `Cc1cccc(NC(=O)c2sc3nc4c(cc3c2N)CCCC4)c1C`, for which the GI50 in the assay on A549 NSCLC is 0.612 µM; with CCRF-CEM leukemia it was 0.375 µM; in the assay with HOP-92 NSCLC, 0.7 µM; with HT29 colon, 0.341 µM; with MDA-MB-435, 0.115 µM; in the assay with OVCAR-4 ovarian it was 1.48 µM. Moreover, the GI50 in the assay with SK-OV-3 ovarian is 0.581 µM; in the assay on SR leukemia, 0.276 µM; in the assay with SW-620 colon, 0.369 µM. The TGI in the assay on A549 NSCLC was more than 100 µM; in the assay on CCRF-CEM leukemia, more than 100 µM; with HOP-92 NSCLC, more than 100 µM; in the assay on HT29 colon it was more than 100 µM; in the assay on MDA-MB-435, 0.391 µM; in the assay on OVCAR-4 ovarian it was more than 100 µM. For the same compound, the TGI in the assay on SK-OV-3 ovarian, in the assay with SR leukemia, in the assay with SW-620 colon and with UO-31 renal was more than 100 µM in each case.

On to `S=C(N/N=C/c1cc(Cl)cc(Cl)c1)NC12CC3CC(CC(C3)C1)C2`, for which the GI50 was 3.51 µM in the assay with A549 NSCLC; more than 61.1 µM in the assay on CCRF-CEM leukemia; 2.5 µM in the assay on HOP-92 NSCLC; more than 58.3 µM in the assay on HT29 colon; more than 27.6 µM in the assay with MDA-MB-435; 2.12 µM in the assay with OVCAR-4 ovarian. Besides, the GI50 in the assay with SK-OV-3 ovarian was 5.06 µM; in the assay on SR leukemia, 5.02 µM; with SW-620 colon it was 13.4 µM; in the assay with UO-31 renal, 4.86 µM. Also, the TGI in the assay on A549 NSCLC was more than 100 µM; in the assay with CCRF-CEM leukemia, more than 100 µM; in the assay with HOP-92 NSCLC, 12 µM; in the assay on HT29 colon, more than 100 µM; in the assay on MDA-MB-435, more than 100 µM; in the assay with OVCAR-4 ovarian it was 6.07 µM. The TGI with SK-OV-3 ovarian is more than 46 µM; in the assay with SR leukemia it was more than 32 µM; in the assay with SW-620 colon, more than 100 µM; with UO-31 renal it was more than 100 µM.

Consider `Cc1ccc(C(=O)Nc2ccc(CN3CCN(C)CC3)c(C(F)(F)F)c2)cc1C#Cc1cnc(N)c2ccc(F)cc12`, for which the GI50 is 0.27 µM with A549 NSCLC; 0.398 µM in the assay on CCRF-CEM leukemia; 0.18 µM with HOP-92 NSCLC; 0.133 µM in the assay with HT29 colon; 0.123 µM in the assay on MDA-MB-435; 0.329 µM in the assay with OVCAR-4 ovarian. In addition, the GI50 in the assay with SK-OV-3 ovarian was 0.684 µM; in the assay with SR leukemia it was 0.262 µM; with SW-620 colon, 0.251 µM; with UO-31 renal it was 0.121 µM. In addition, the TGI came out at 0.712 µM in the assay with A549 NSCLC; 1.82 µM in the assay on CCRF-CEM leukemia; 0.944 µM with HOP-92 NSCLC; 0.865 µM in the assay with HT29 colon; 0.47 µM in the assay on MDA-MB-435; 2.32 µM with OVCAR-4 ovarian. Also, the TGI in the assay on SK-OV-3 ovarian amounted to 2.88 µM; in the assay with SR leukemia it was 1.3 µM; in the assay with SW-620 colon, 0.638 µM; with UO-31 renal, 0.748 µM.

Regarding `CSc1ccc(/C=C2\CNC/C(=C\c3ccc(SC)cc3)C2=O)cc1`, the GI50 is 150 µg/mL in the assay on A549 NSCLC; 29.1 µg/mL in the assay with CCRF-CEM leukemia; 31.9 µM and 27 µg/mL in the assay on HOP-92 NSCLC; 150 µg/mL in the assay with HT29 colon; > 371 µM and 18.7 µg/mL with OVCAR-4 ovarian; 77.8 µg/mL in the assay on SK-OV-3 ovarian. The GI50 in the assay with SR leukemia is 23.3 µM; in the assay on SW-620 colon, 150 µg/mL; in the assay with UO-31 renal, 150 µg/mL. Also, the TGI in the assay with A549 NSCLC is > 371 µM and 150 µg/mL; in the assay on CCRF-CEM leukemia, > 371 µM and 78.8 µg/mL; with HOP-92 NSCLC it was 233 µM and 83.2 µg/mL; in the assay with HT29 colon, > 117 µM and 150 µg/mL; with MDA-MB-435 it was more than 371 µM; in the assay with OVCAR-4 ovarian it was > 371 µM and 28.7 µg/mL. Also, the TGI in the assay with SK-OV-3 ovarian was > 170 µM and 148 µg/mL; in the assay on SR leukemia it was 67.8 µM and > 190 µM; in the assay with SW-620 colon, > 371 µM and 150 µg/mL; in the assay with UO-31 renal it was > 371 µM and 150 µg/mL.

Consider `COC(=O)C1=C(OC(=O)c2ccc(Cl)cc2)C(C(=O)OC)[C@@]2(O)[C@@H](C(=O)OC)C(c3ccccc3C(F)(F)F)C[C@@H]1[C@@H]2C(=O)OC` (some centres undefined), for which the GI50 in the assay on A549 NSCLC is 3.59 µM; in the assay with CCRF-CEM leukemia it was 3.54 µM; with HOP-92 NSCLC, 6.27 µM; with HT29 colon it was 3.54 µM; in the assay on MDA-MB-435, 17.6 µM; with SK-OV-3 ovarian it was 5.99 µM. Moreover, the results for the GI50 with SR leukemia, in the assay on SW-620 colon and with UO-31 renal were 3.94 µM, 3.83 µM and 12.6 µM, respectively. Further, the TGI with A549 NSCLC is 28.8 µM; in the assay on CCRF-CEM leukemia it was 31.2 µM; with HOP-92 NSCLC, more than 100 µM; in the assay on HT29 colon, more than 100 µM; in the assay on MDA-MB-435 it was 50.2 µM; in the assay on SK-OV-3 ovarian, 60 µM. Moreover, the TGI in the assay on SR leukemia was more than 100 µM; in the assay on SW-620 colon, 21.1 µM; in the assay on UO-31 renal, 31.6 µM.

`CC1(C)O[C@H]2OC3CCC(=O)CC3(O)[C@H]2O1` (some centres undefined): the TGI with A549 NSCLC, with CCRF-CEM leukemia, with HOP-92 NSCLC, with HT29 colon, in the assay on MDA-MB-435 and with OVCAR-4 ovarian was more than 100 µM each time. Further, the TGI in the assay with SK-OV-3 ovarian, in the assay on SR leukemia, in the assay on SW-620 colon and in the assay on UO-31 renal was more than 100 µM throughout.

Take `CON(C)C(=O)C(C)NC(=O)OCc1ccccc1` (centres undefined): the TGI in the assay with A549 NSCLC, in the assay on CCRF-CEM leukemia, with HOP-92 NSCLC, in the assay on HT29 colon, with MDA-MB-435 and in the assay on SK-OV-3 ovarian was more than 100 µM throughout. The TGI in the assay with SR leukemia, in the assay with SW-620 colon and in the assay on UO-31 renal was more than 100 µM throughout.

As for `C[n+]1cc2c3c(ccc2c2ccc4cc5c(cc4c21)OCO5)OCO3`, the GI50 in the assay on A549 NSCLC was 0.322 µM; with CCRF-CEM leukemia it was 0.217 µM; with HOP-92 NSCLC it was 0.584 µM; in the assay on HT29 colon, 0.507 µM; in the assay on MDA-MB-435 it was 0.317 µM; with SK-OV-3 ovarian, 1.21 µM. Further, the GI50 with SR leukemia was 0.258 µM; with SW-620 colon it was 0.174 µM; in the assay with UO-31 renal it was 0.359 µM. Besides, the TGI with A549 NSCLC stood at 1.15 µM; in the assay on CCRF-CEM leukemia, 1.15 µM; with HOP-92 NSCLC it was 2.05 µM; in the assay with HT29 colon it was 1.87 µM; in the assay with MDA-MB-435 it was 1.11 µM; with SK-OV-3 ovarian it was 2.45 µM. Also, the TGI in the assay on SW-620 colon was 0.36 µM; with UO-31 renal, 1.7 µM.

Take `COc1ccc(OC)c(-c2cc(-c3ccccc3)nn2-c2ccc(S(=O)(=O)NC(C)=O)cc2)c1`: the GI50 is 22.9 µM in the assay on A549 NSCLC; 2.13 µM in the assay with CCRF-CEM leukemia; 14.4 µM in the assay on HOP-92 NSCLC; 5.77 µM with MDA-MB-435; 2.38 µM in the assay on SR leukemia; 3.52 µM with SW-620 colon. Besides, the GI50 in the assay with UO-31 renal was 25.3 µM. Moreover, the TGI in the assay with A549 NSCLC was more than 100 µM; in the assay on CCRF-CEM leukemia, 6.55 µM; in the assay with HOP-92 NSCLC, 38.9 µM; with MDA-MB-435, 22.9 µM; in the assay with SR leukemia, more than 100 µM; in the assay with SW-620 colon, 9.15 µM. The compound also displayed a TGI in the assay with UO-31 renal of more than 100 µM.

Take `Cc1cc2c(C(C)C)c(O)c(O)c(C=Nc3cc(C(F)(F)F)ccc3Cl)c2c(O)c1-c1c(C)cc2c(C(C)C)c(O)c(O)c(C=Nc3cc(C(F)(F)F)ccc3Cl)c2c1O`: the TGI in the assay with A549 NSCLC was more than 100 µM; with CCRF-CEM leukemia it was more than 100 µM; in the assay with HOP-92 NSCLC, 53.5 µM; in the assay on HT29 colon, 79.3 µM; with MDA-MB-435 it was 86 µM; with SK-OV-3 ovarian it was 54 µM. In addition, the TGI with SR leukemia, with SW-620 colon and in the assay with UO-31 renal was more than 100 µM throughout.

Turning to `COc1cc(/C=C2\CN(C)CC3=C2Nc2nc(SC)[nH]c(=O)c2C3c2cc(OC)c(OC)c(OC)c2)cc(OC)c1OC` (centres undefined), the GI50 was 3.26 µM with A549 NSCLC; 3.4 µM with HOP-92 NSCLC; 2.35 µM with HT29 colon; 2.51 µM in the assay on MDA-MB-435; 4.99 µM in the assay with OVCAR-4 ovarian; 3.07 µM in the assay with SK-OV-3 ovarian. For the same compound, the GI50 in the assay with SR leukemia was 1.48 µM; with SW-620 colon, 2 µM; in the assay with UO-31 renal it was 1.57 µM. Besides, the TGI in the assay on A549 NSCLC came out at 13.7 µM; with HOP-92 NSCLC, 10.9 µM; in the assay on HT29 colon, 5.22 µM; in the assay with MDA-MB-435, 8.46 µM; with OVCAR-4 ovarian, 21.2 µM; with SK-OV-3 ovarian, 12.5 µM. The TGI in the assay with SR leukemia is more than 100 µM; in the assay on SW-620 colon, 4.41 µM; in the assay on UO-31 renal, 3.44 µM.

As for `CN1C2CC(C#N)C1C=CC2=O` (centres undefined), the GI50 in the assay on A549 NSCLC is 18.1 µM and > 100 µM; in the assay with HOP-92 NSCLC, 14.5 µM and 62.3 µM; in the assay with HT29 colon, 17.5 µM and 83.8 µM; in the assay with MDA-MB-435 it was 16.9 µM and 89.2 µM; with SR leukemia, 24.2 µM and 86.1 µM; in the assay on SW-620 colon, 15.1 µM and 72.5 µM. In the assay on UO-31 renal, the GI50 was 11.4 µM and > 100 µM. In addition, the TGI was 46 µM and > 100 µM in the assay with A549 NSCLC; 29.9 µM and > 100 µM in the assay with CCRF-CEM leukemia; 31.4 µM and > 100 µM in the assay on HOP-92 NSCLC; 59.5 µM and > 100 µM with HT29 colon; 36.7 µM and > 100 µM in the assay on MDA-MB-435; 62.4 µM and > 100 µM in the assay on SK-OV-3 ovarian. The TGI is more than 100 µM in the assay on SR leukemia; 43.7 µM and > 100 µM in the assay on SW-620 colon; 24.1 µM and > 100 µM with UO-31 renal.

The record behind these values is PubChem BioAssay (NCI).
